Measurements: the NIST ThermoML archive (doi:10.1021/je5010643)

Columns and labels:
[1] = 101.32 kPa, Liquid; for speed of sound: Frequency=3 MHz, Linear variable-path acoustic interferometer
[2] = refractive index (Na D-line) (dimensionless); settings: 101.32 kPa, Liquid, Standard Abbe refractometry
[3] = refractive index (Na D-line) (dimensionless); xn = mol fraction of the nth substance listed; settings: 101.32 kPa, Liquid, Standard Abbe refractometry, x1 = 1
[4] = xn = mol fraction of the nth substance listed; settings: 101.32 kPa, Liquid, x1 = 1; for speed of sound: Frequency=3 MHz, Linear variable-path acoustic interferometer

C1COCCO1 [1,4-dioxane]
Settings | mass density, [1] [kg/m3] | refractive index, [2] | speed of sound, [1] [m/s]
295.15 K | 1030.86 | 1.4211 | 1357.7
298.15 K | 1027.59 | 1.4197 | 1344.8
301.15 K | 1024.32 | 1.4183 | 1331.9
304.15 K | 1021.05 | 1.4168 | 1319
307.15 K | 1017.78 | 1.4154 | 1306.2
310.15 K | 1014.51 | 1.4138 | 1293.3
313.15 K | 1011.24 | 1.4124 | 1280.4

C1COCCO1 [1,4-dioxane] + CC(C)C(=O)O
Settings | mass density, [4] [kg/m3] | refractive index, [3] | speed of sound, [4] [m/s]
295.15 K | 1030.86 | 1.4211 | 1357.7
298.15 K | 1027.59 | 1.4197 | 1344.8
301.15 K | 1024.32 | 1.4183 | 1331.9
304.15 K | 1021.05 | 1.4168 | 1319
307.15 K | 1017.78 | 1.4154 | 1306.2
310.15 K | 1014.51 | 1.4138 | 1293.3
313.15 K | 1011.24 | 1.4124 | 1280.4

CC(C)C(=O)O [2-methylpropanoic acid]
Settings | mass density, [1] [kg/m3] | refractive index, [2] | speed of sound, [1] [m/s]
295.15 K | 945.28 | 1.3919 | 1100.2
298.15 K | 942.22 | 1.3907 | 1086
301.15 K | 939.16 | 1.3895 | 1072.1
304.15 K | 936.1 | 1.3883 | 1058.2
307.15 K | 933.04 | 1.3872 | 1043.4
310.15 K | 929.98 | 1.386 | 1030.8
313.15 K | 926.92 | 1.3849 | 1015.2
